Here are results for 5 molecules from publication PMC11016601, “Exploring the bioaccessibility and intestinal absorption of major classes of pure phenolic compounds using in vitro simulated gastrointestinal digestion” (Heliyon, 2024).

Values joined by “and” are separate entries in the source; they are usually repeats but may differ in a detail not shown here. Equal values may be shown once. Read-outs that look alike come from different tables or passages of the source. Marks after values point to notes of the source that are not given here.

A short description of series [1]: In vitro simulated gastrointestinal digestion (SGD, INFOGEST 2.0): concentration and bioaccessibility by UHPLC-DAD-MSn. As to conditions: for Bioaccessibility (%), initial solution (IS): reference. The protocol: Preliminary solubility tests in different solvents, namely water, sodium phosphate buffer (26.8 mM, pH 6.1), ethanol, and also a mixture of ethanol with both water and sodium phosphate buffer, were carried out for each PC (data not shown), to prevent erroneous data arising from compounds precipitation. Ethanol percentages used in these preliminary solubility tests were 10, 15, and 20% (v/v).
Each PC solubilized in ethanol:water (15% v/v) was then submitted to an in vitro SGD (INFOGEST 2.0), according to a standardized protocol (Fig. 2). In order to determine whether the interaction between the compounds and enzymes led to an underestimation of their content, each PC solution was submitted to the same digestion procedure, replacing the enzyme solutions with water, which were designed as controls, henceforth this will be the term used. Each sample and control were submitted to three independent in vitro digestion simulations, and after each digestion phase, a sample/control was collected and further analyzed and quantified by UHPLC-DAD-MSn.
(§1) Mouth digestion of each PC solution (1 mL) was diluted in 0.8 mL of simulated salivary fluid (SSF) and α-amylase (75 U mL-1). Then, the mixture was incubated for 2 min at 37 °C under agitation (200 rpm). In order to start gastric digestion, pH was adjusted to 3.0 using 1 M aqueous HCl and then, a pepsin solution (2000 U mL-1) and simulated gastric fluid (SGF) were added. Subsequently, the mixture was incubated for 2h, at 37 °C and 130 rpm orbital agitation for the stomach digestion. Finally, the small intestine digestion simulation was performed after pH adjustment to 7.0 using 1 M aqueous […] and the addition of pancreatin (100 U mL-1), bile salts solution (10 mM) and simulated intestinal fluid (SIF), during 2 h, at 37 °C with 45 rpm orbital agitation. Natural small intestine absorption was also simulated, by placing the remaining sample in a dialysis membrane, and immersed in distilled water overnight at room temperature.
At each sampling point, an aliquot (0.5 mL) from each of the three replicates was collected. The enzymatic activity was stopped immediately by adding pure methanol to each aliquot (1:1, v/v) to promote enzyme precipitation and subsequently centrifuged at 10 000 g and 4 °C for 5 min. The supernatants were filtered with a 0.2 μm nylon filter. To determine the concentration of each sample or control, it was considered the following dilution factor – 1:2, 1:4 and 1:8 for oral, gastric and intestinal digestion phase, respectively.
The bioaccessibility percentage (B%) of each PC was calculated using equation (1):(1) B(%)=[DS]/[IS]×100 where IS is the initial concentration of PCs in ethanol:water (15% v/v) solutions, DS is the concentration of each collected sample or control (without enzymes).
(§2) The values of B% and IA% were the average of the three replicates performed, with the calculated standard deviation.
PCs were analyzed in a UHPLC system equipped with a variable loop Accela autosampler (set at 16 °C), an Accela 600 LC pump, and an Accela 80 Hz photo diode array detector (DAD) (Thermo Fisher Scientific, San Jose, CA, USA). Each sample was prepared in methanol:water (1:1, v/v) and filtered through a 0.2 μm nylon syringe filter. […] The mobile phase was composed of acetonitrile (A) and water:acetonitrile (99:1, v/v) (B), both with 0.1 % of formic acid. The gradient elution was performed as follows: 0–1min: 99% B; 1–17 min: 99-73% B, 17–20 min: 73-0% B, 20–25 min: 0–99% B, followed by re-equilibration of the column at 99% B for 4 min.

Series [2] in a line: Simulation of intestinal absorption using a dialysis membrane (3 kDa) after in vitro SGD.
Text: HPLC-grade methanol, water, and acetonitrile were supplied by Fisher Scientific Chemicals. The enzymes α-amylase (A1031), pepsin from porcine stomach mucosa (P7012), pancreatin from porcine pancreas (P7545), and bile salts (B863) were purchased from Sigma-Aldrich (Taufkirchen, Germany). The rabbit gastric extract (RGE15) with gastric lipase activity was purchased from Lipolytech (Marseille, France). The ethanol was purchased from Merck (Algés, Portugal). A dialysis membrane with a molecular pore size of 3 kDa was purchased from Spectra/Pro (Spectrum Lab, Breda, Netherlands).
as §1
Furthermore, to determine the intestinal absorption, the aliquots collected inside the dialysis membrane were analyzed. The concentration of these samples (from inside of the membrane) corresponds to the amount of each PC that has not passed through to the outside of the membrane.
as §2

[3] abbreviates: samples with enzymes, after intestinal digestion pH 7.0.
The mark [4] stands for this setting: samples with enzymes, after oral digestion.
The mark [5] stands for this setting: controls (without enzymes), gastric phase.
Where [6] appears, read: controls (without enzymes), initial solution.
Setting [7] is: controls (without enzymes), intestinal phase.
[8] abbreviates: controls (without enzymes), oral phase.
Setting [9] is: samples with enzymes, after gastric digestion pH 3.0.
The mark [10] stands for this setting: samples with enzymes, gastric phase.
Setting [11] is: samples with enzymes, intestinal phase.
The mark [12] stands for this setting: samples with enzymes, oral phase.
[13] abbreviates: samples, initial ethanol:water (15% v/v) solution.

Regarding `O=c1oc2c(O)c(O)cc3c(=O)oc4c(O)c(O)cc1c4c23` [EA, ellagic acid], the “Concentration, intestinal phase (I)” value in series [1] (setting [3]) is 5.20 ± 0.10 µg/mL. The “Concentration, oral phase (O)” value in series [1] (setting [4]) is 4.78 ± 1.75 µg/mL. For the same molecule, in series [2], the “Concentration, dialysis phase (D)” value is “below the detection limit” and the “Intestinal absorption (IA%)” value is listed as “very high”.

As to `Oc1cc(O)cc(O)c1` [PG, phloroglucinol], the “Bioaccessibility (%), oral phase (O)” value in series [1] (2 min) was 92.78 ± 5.91^ b %; in series [1] (setting [8]), 94.08% and 94.08 ± 1.84 ^a %; in series [1] (setting [12]), 92.78%. Further, the “Bioaccessibility (%), gastric phase (G)” value is 91.32% and 91.32 ± 3.79 ^a % in series [1] (setting [5]); 94.09% and 94.09 ± 3.85^ b % in series [1] (setting [10]). In addition, the “Concentration, gastric phase (G)” value in series [1] (setting [5]) was 4765.51 ± 197.78 µg/mL; in series [1] (setting [9]), 4910.12 ± 200.81 µg/mL. Besides, the “Concentration, initial solution (IS)” value in series [1] (setting [6]) and in series [1] (setting [13]) was 5218 µg/mL each time. The “Bioaccessibility (%), initial solution (IS)” value (shortened to “Bioaccessibility (%) … (IS)”) was 100 ^a % in series [1] (setting [6]) and 100^ b % in series [1] (samples, initial solution). In addition, the “Bioaccessibility (%), intestinal phase (I)” value (“Bioaccessibility (%) … (I)” below) in series [1] (setting [7]) was 94.91% and 94.91 ± 5.32 ^a %; in series [1] (setting [11]), 159.82% and 159.82 ± 19.05^ a %. Also, the “Concentration, intestinal phase (I)” value is 4952.79 ± 277.44 µg/mL in series [1] (setting [7]) and 8339.90 ± 994.21 µg/mL in series [1] (setting [3]). Further, the “Concentration, oral phase (O)” value is 4909.58 ± 96.26 µg/mL in series [1] (setting [8]) and 4841.66 ± 308.60 µg/mL in series [1] (setting [4]). The “Concentration, dialysis phase (D)” value in series [2] was 225.29 ± 125.33 µg/mL; in series [2] (pig), 555.31 ± 145.46 µg/mL.

`O=C(O[C@@H]1Cc2c(O)cc(O)cc2O[C@@H]1c1cc(O)c(O)c(O)c1)c1cc(O)c(O)c(O)c1` [EGCG, epigallocatechin-3-O-gallate]: the “Bioaccessibility (%), oral phase (O)” value in series [1] (2 min) is 38.16 ± 12.23^ b %; in series [1] (setting [8]), 34.13% and 34.13 ± 1.91 ^c %; in series [1] (setting [12]) it was 38.16%. Also, the “Bioaccessibility (%), gastric phase (G)” value in series [1] (setting [5]) is 61.53% and 61.53 ± 5.39 ^b %; in series [1] (setting [10]) it was 71.21% and 71.21 ± 3.16 ^a %. Further, the results for the “Concentration, gastric phase (G)” value in series [1] (setting [5]) and in series [1] (setting [9]) were 1272.99 ± 111.59 µg/mL and 1473.22 ± 65.28 µg/mL, respectively. For the same molecule, the “Concentration, initial solution (IS)” value in series [1] (setting [6]) and in series [1] (setting [13]) was 2068.93 µg/mL in each case. Besides, the “Bioaccessibility (%) … (IS)” value in series [1] (setting [6]) is 100^ a %; in series [1] (samples, initial solution), 100^ a %. Also, the “Bioaccessibility (%) … (I)” value in series [1] (setting [7]) was 5.03% and 5.03 ± 0.81 ^d %; in series [1] (setting [11]), 15.09% and 15.09 ± 2.26 ^b %. For the same molecule, the “Concentration, intestinal phase (I)” value in series [1] (setting [7]) was 104.15 ± 16.86 µg/mL; in series [1] (setting [3]), 312.22 ± 46.76 µg/mL. Also, the “Concentration, oral phase (O)” value in series [1] (setting [8]) was 706.03 ± 39.46 µg/mL; in series [1] (setting [4]) it was 789.50 ± 253.03 µg/mL. The “Concentration, dialysis phase (D)” value in series [2] is “below the detection limit”. Besides, in series [2], the “Intestinal absorption (IA%)” value is “very high”.

For the molecule `O=C1C[C@@H](c2ccc(O)cc2)Oc2cc(O)cc(O)c21` [NAR, (+)-naringenin], the “Bioaccessibility (%), oral phase (O)” value is 97.26 ± 5.50% in series [1] (2 min); 102.62% and 102.62 ± 1.12% in series [1] (setting [8]); 97.26% in series [1] (setting [12]). In addition, the “Bioaccessibility (%), gastric phase (G)” value in series [1] (setting [5]) was 84.37% and 84.37 ± 4.60%; in series [1] (setting [10]) it was 79.09% and 79.09 ± 6.97%. The “Concentration, gastric phase (G)” value in series [1] (setting [5]) is 301.86 ± 16.45 µg/mL; in series [1] (setting [9]), 282.96 ± 24.94 µg/mL. The “Concentration, initial solution (IS)” value in series [1] (setting [6]) and in series [1] (setting [13]) was 357.76 µg/mL each time. Moreover, the “Bioaccessibility (%) … (IS)” value in series [1] (setting [6]) is 100%; in series [1] (samples, initial solution), 100%. In addition, the “Bioaccessibility (%) … (I)” value in series [1] (setting [7]) was 68.99% and 68.99 ± 33.64%; in series [1] (setting [11]), 65.15% and 65.15 ± 28.62%. Besides, the “Concentration, intestinal phase (I)” value was 246.82 ± 120.35 µg/mL in series [1] (setting [7]) and 233.10 ± 102.39 µg/mL in series [1] (setting [3]). Further, the “Concentration, oral phase (O)” value is 367.13 ± 4.00 µg/mL in series [1] (setting [8]) and 347.95 ± 19.67 µg/mL in series [1] (setting [4]). For the same molecule, the entries for the “Concentration, dialysis phase (D)” value in series [2] and in series [2] (pig) were 3.29 ± 0.96 µg/mL and 17.50 ± 3.80 µg/mL, respectively.

For `O=c1c(-c2ccc(O)cc2)coc2cc(O)ccc12` [DAID, daidzein], the “Bioaccessibility (%), gastric phase (G)” value was 70.95% and 70.95 ± 3.71 ^a % in series [1] (setting [5]); 81.78% and 81.78 ± 10.87 ^a % in series [1] (setting [10]). The “Concentration, gastric phase (G)” value in series [1] (setting [5]) was 12.89 ± 0.67 µg/mL; in series [1] (setting [9]), 14.86 ± 1.98 µg/mL. Moreover, the “Concentration, initial solution (IS)” value in series [1] (setting [6]) and in series [1] (setting [13]) was 18.17 µg/mL in each case. The “Bioaccessibility (%) … (IS)” value is given as 100^ a % in series [1] (setting [6]) and 100^ a % in series [1] (samples, initial solution). Moreover, the “Bioaccessibility (%) … (I)” value in series [1] (setting [7]) is 138.68% and 138.68 ± 9.01^ a %; in series [1] (setting [11]) it was 158.08% and 158.08 ± 11.20^ a %. Further, the “Concentration, intestinal phase (I)” value in series [1] (setting [7]) was 25.20 ± 1.64 µg/mL; in series [1] (setting [3]), 28.72 ± 2.03 µg/mL. Also, the “Bioaccessibility (%), oral phase (O)” value in series [1] (setting [8]) was 78.35% and 78.35 ± 24.88^ a %; in series [1] (setting [12]), 119.06% and 119.06 ± 30.41^ a %. Also, the “Concentration, oral phase (O)” value in series [1] (setting [8]) is 14.24 ± 4.52 µg/mL; in series [1] (setting [4]) it was 21.63 ± 5.52 µg/mL. In addition, the “Concentration, dialysis phase (D)” value in series [2] is recorded as “below the detection limit”.
